Experimental data published in patent US7109223B2, “Oxazolidin-2-one and thiazolidin-2-one derivatives for use as EP4 receptor agonists in the treatment of glaucoma” (Merck & Co. Inc., priority 2002, dated 2006).
“Also recorded” adds a separate entry of the source.

Tests used:
[1] = system: ROS 17/2.8 rat osteosarcoma cells; assay: Effect on intracellular cAMP in ROS 17/2.8 cells; type: cell-based
Procedure: (§1) RCT-1 and RCT-3 are clonal cell lines immortalized by SV-40 large T antigen from cells released from fetal rat calvair by a cmbination collagenase/hyaluronidase digestion. RCT-1 cells, derived from cells released during the first 10 minutes of digestion (fraction I), are cultured in RPMI 1640 medium (BRL) with 10% fetal bovine serum and 0.4 mg/ml G418 (BRL). These cells differentiate and express osteoblastic features upon retinoic acid treatment. RCT-3 cells, immortalized from osteoblast-enriched fraction III cells, are cultured in F-12 medium (BRL) with 5% Fetal bovine serum and 0.4 mg/ml G418. TRAB-11 cells are also immortalized by SV40 large T antigen from adult rat tibia and are cultured in RPMI 1640 medium with 10% FBS and 0.4 mg/ml G418. ROS 17/2.8 rat osteosarcoma cells are cultured in F-12 containing 5% FBS. Osteoblast-enriched (fraction III) primary fetal rat calvaria cells are obtained by collagenase/hyaluronidase digestion of calvariae of 19 day-old rat fetuses. See Rodan et al., Growth stimulation of rat calvaria osteoblastic cells by acidic FGF, Endocrinology, 121, 1919–1923 (1987), which is incorporated by reference herein in its entirety. Cells are released during 30–50 minutes digestion (fraction III) and are cultured in F-12 medium containing 5% FBS. […]

[2] = system: RCT-3 cells; assay: Effect on intracellular cAMP in RCT-3 cells; type: cell-based, rat
Procedure: as §1

[3] = system: TRAB-11 cells; assay: Effect on intracellular cAMP in TRAB-11 cells; type: cell-based, rat
Procedure: as §1

[4] = system: RP-1 periosteal cells; assay: EP4 and EP2 mRNA levels in RP-1 periosteal cells (Northern blot); type: cell-based, rat; conditions: RP-1 cells
Procedure: RP-1 periosteal cells are spontaneously immortalized from primary cultures of periosteal cells from tibae of 4-week old Sprague-Dawley rats and are cultured in DMEM (BRL, Gaithersburg, Md.) with 10% fetal bovine serum (JRH Biosciences, Lenexa, Kans.).
(§2) Total RNA is extracted from the tibial metaphysis or diaphysis and calvaria using a guanidinium isothiocyanate-phenol-chloroform method after pulverizing frozen bone samples by a tissue homogenizer. See P. Chomczynski et al., Single-step method of RNA isolation by acid guanidium thiocyanate-phenol-chloroform extraction, Analyt Biochem, 162, 156–159 (1987), which is incorporated by reference herein in its entirety. RNA samples ([…]) are separated on 0.9% agarose/formaldehyde gels and transferred onto nylon membranes (Boehringer Mannheim, Germany). Membranes are prehybridized in Hybrisol I (Oncor, Gaithersburg, Md.) and 0.5 mg/ml sonicated salmon sperm DNA (Boehringer) at 42° C. for 3 hours and are hybridized at 42° C. with rat EP2 and mouse EP4 cDNA probes labeled with [^32P]-dCTP (Amersham, Buckinghamshire, UK) by random priming using the rediprime kit (Amersham). After hybridization, membranes are washed 4 times in 2× SSC+0.1% SDS at room temperature for a total of 1 hour and once with 0.2× SSC+0.1% SDS at 55° C. for 1 hour and then exposed to Kodak XAR 2 film at −70° C. using intensifying screens. After developing the films, bound probes are removed twice with 0.1% SDS at 80° C. and membranes are hybridized with a human GAPDH (Glyceraldehyde 3-Phosphate Dehydrogenase) cDNA probe (purchased from Clontech, Palo Alto, Calif.) for loading control.
PGE2 enhances its own production via upregulation of cyclooxygenase 2 expression in osteoblasts and in bone tissue thus autoamplifying its own effects. PGE2 also increases the levels of EP4 mRNA. RP-1 cells are immortalized from a primary culture of adult rat tibia periosteum is examined. These cells express osteoblast phenotypic markers upon confluence and form mineralized bone matrix when implanted in nude mice. […]

[5] = system: RCT-3 cells; assay: EP4 mRNA levels in RCT-3 cells (Northern blot); type: cell-based, rat
Procedure: as §1

[6] = system: bone tissue; assay: EP4 and EP2 mRNA levels in vivo in bone tissue (Northern blot); set-up: species or system rat
Procedure: (§3) For mRNA localization experiments, 5-week old Sprague-Dawley rats (Charles River) are euthanized by CO2, their tibiae and calvariae are excised, cleaned of soft tissues and frozen immediately in liquid nitrogen. For EP4 regulation experiments, 6-week old rats are given a single injection of either vehicle (7% ethanol in sterile water) or an anabolic dose of PGE2 (Cayman Chemical, Ann Arbor, Mich.), 3–6 mg/kg in the same vehicle) intraperitoneally. Animals are euthanized at several time points post-injection and their tibiae and calvariae, as well as samples from lung and kidney tissues are frozen in liquid nitrogen.
as §2, with “control. […]” for “control.”

[7] = system: bone marrow cells; assay: Localization of EP4 mRNA expression in bone tissue (in situ hybridization); type: in vivo, rat; conditions: rats, single anabolic dose
Procedure: as §3
Frozen tibiae are sectioned coronally at […] thickness and sections are mounted on charged slides (Probe On Plus, Fisher Scientific, Springfield, N.J.) and are kept at −70° C. until hybridization. cRNA probes are labeled with ^35S-UTPgS (ICN, Costa Mesa, Calif.) using a Riboprobe II kit (Promega Madison, Wis.). Hybridization is performed overnight at 50° C. […]
In situ hybridization is used in order to localize cells expressing EP4 in bone. In control experiment (vehicle-injected) rats, low expression of EP4 is detected in bone marrow cells. […]

## CCCCC[C@H](O)/C=C/[C@H]1[C@H](O)CC(=O)[C@@H]1C/C=C\CCCC(=O)O [PGE2]
[1]
  effect on intracellular cAMP: no effect
[2]
  effect on intracellular cAMP: markedly induced
[3]
  effect on intracellular cAMP: markedly induced
[4]
  EP2 mRNA: not expressed; also recorded: does not induce
[4]; 10^−6M
  EP4 mRNA levels: rapidly increases
  time of peak EP4 mRNA levels after treatment: 2 h
[5]
  EP4 mRNA levels: no effect
[6]; five-week-old male rats, 3–6 mg/Kg
  time of peak EP4 mRNA levels in the tibial diaphysis after injection: 2 h
[6]; five-week-old male rats, 3–6 mg/Kg, systemic administration
  EP4 mRNA levels in the tibial diaphysis: rapidly increased
[6]; rats
  EP2 mRNA in bone tissue: does not induce
[7]
  expression of EP4 in bone marrow cells: increased
